Laboratory results from ChEMBL document CHEMBL3797185, “Exploring the 2- and 5-positions of the pyrazolo[4,3-d]pyrimidin-7-amino scaffold to target human A1 and A2A adenosine receptors” (Bioorg Med Chem, 2016).

molecular target: T1, Adenosine receptor A1 (Homo sapiens, UniProt P30542); experiment: Displacement of [3H]-DPCPX from human adenosine A1 receptor expressed in CHO cell membranes after 120 mins by scintillation counting method
T1 sequence (P30542 whole entry): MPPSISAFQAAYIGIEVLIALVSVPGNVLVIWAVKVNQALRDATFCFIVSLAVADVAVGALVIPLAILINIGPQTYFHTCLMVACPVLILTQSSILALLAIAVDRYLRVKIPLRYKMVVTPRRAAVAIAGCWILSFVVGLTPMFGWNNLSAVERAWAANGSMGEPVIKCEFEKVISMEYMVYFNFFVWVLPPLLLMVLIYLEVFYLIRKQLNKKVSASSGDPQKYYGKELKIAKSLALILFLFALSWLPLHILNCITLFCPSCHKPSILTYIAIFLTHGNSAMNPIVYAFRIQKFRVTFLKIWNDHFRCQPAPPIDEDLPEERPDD

Row | Compound | Ki [nM]
1 | Nc1nc(CCCc2ccccc2)nc2cn(-c3ccccc3O)nc12 | 17
2 | COc1ccccc1Cn1cc2nc(-c3ccco3)nc(N)c2n1 | 98
3 | Cc1ccc(-c2nc(N)c3nn(Cc4ccccc4F)cc3n2)o1 | 309
4 | Cc1ccc(-c2nc(N)c3nn(Cc4ccccc4Cl)cc3n2)o1 | 60

molecular target: T2, Adenosine receptor A2a (Homo sapiens, UniProt P29274); experiment: Displacement of [3H]-ZM241385 from human adenosine A2A receptor expressed in CHO cell membranes after 60 mins by scintillation counting method
T2 sequence (P29274 whole entry): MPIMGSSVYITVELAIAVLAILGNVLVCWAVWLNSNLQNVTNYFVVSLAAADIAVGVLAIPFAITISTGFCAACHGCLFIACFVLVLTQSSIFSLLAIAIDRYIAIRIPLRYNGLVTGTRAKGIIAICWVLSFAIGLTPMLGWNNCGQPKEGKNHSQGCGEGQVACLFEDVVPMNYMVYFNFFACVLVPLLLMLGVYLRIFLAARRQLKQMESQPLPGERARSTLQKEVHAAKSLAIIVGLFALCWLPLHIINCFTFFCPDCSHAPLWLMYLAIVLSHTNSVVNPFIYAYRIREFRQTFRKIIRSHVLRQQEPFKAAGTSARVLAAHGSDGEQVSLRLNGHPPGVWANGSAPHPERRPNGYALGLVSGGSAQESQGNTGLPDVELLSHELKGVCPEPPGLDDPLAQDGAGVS

Row | Compound | Ki [nM]
5 | Cc1ccc(-c2nc(N)c3nn(-c4ccccc4O)cc3n2)o1 | 147
6 | COc1ccccc1-n1cc2nc(-c3ccc(C)o3)nc(N)c2n1 | 518
7 | COc1ccccc1-n1cc2nc(-c3ccco3)nc(N)c2n1 | 362
8 | Nc1nc(CCCc2ccccc2)nc2cn(-c3ccccc3O)nc12 | 240
9 | Nc1nc(-c2ccco2)nc2cn(Cc3ccccc3)nc12 | 320
10 | COc1ccccc1Cn1cc2nc(-c3ccco3)nc(N)c2n1 | 5.37
11 | Cc1ccc(-c2nc(N)c3nn(Cc4ccccc4F)cc3n2)o1 | 57
12 | Cc1ccc(-c2nc(N)c3nn(Cc4ccccc4Cl)cc3n2)o1 | 6.21

molecular target: T3, Adenosine receptor A3 (Homo sapiens, UniProt P0DMS8); experiment: Displacement of [125I]-AB-MECA from human adenosine A3 receptor expressed in CHO cell membranes after 60 mins by scintillation counting method
T3 sequence (P0DMS8 whole entry): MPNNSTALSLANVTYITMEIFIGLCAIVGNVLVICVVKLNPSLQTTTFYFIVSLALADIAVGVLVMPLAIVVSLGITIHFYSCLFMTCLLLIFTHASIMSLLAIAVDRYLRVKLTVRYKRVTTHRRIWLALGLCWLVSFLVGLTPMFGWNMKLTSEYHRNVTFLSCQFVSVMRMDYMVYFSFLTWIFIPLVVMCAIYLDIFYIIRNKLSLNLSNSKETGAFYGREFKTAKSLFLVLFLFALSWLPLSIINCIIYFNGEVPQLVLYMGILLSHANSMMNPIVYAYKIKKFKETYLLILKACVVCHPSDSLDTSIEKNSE

Row | Compound | Ki [nM]
13 | Nc1nc(CCCc2ccccc2)nc2cn(-c3ccccc3F)nc12 | 163
14 | Cc1ccc(-c2nc(N)c3nn(-c4ccccc4O)cc3n2)o1 | 375
15 | COc1ccccc1-n1cc2nc(-c3ccc(C)o3)nc(N)c2n1 | 297
16 | COc1ccccc1-n1cc2nc(-c3cccs3)nc(N)c2n1 | 150
17 | COc1ccccc1Cn1cc2nc(-c3ccco3)nc(N)c2n1 | 196
18 | Cc1ccc(-c2nc(N)c3nn(Cc4ccccc4F)cc3n2)o1 | 498
19 | Cc1ccc(-c2nc(N)c3nn(Cc4ccccc4Cl)cc3n2)o1 | 71

molecular target: T4, Adenosine receptor A1 (Homo sapiens) (UniProt P30542); experiment: Displacement of [3H]-DPCPX from human adenosine A1 receptor expressed in CHO cell membranes at 1 uM after 120 mins by scintillation counting method relative to control
T4 sequence (whole entry): T1 sequence (P30542 whole entry)

Row | Compound | inhibition [%]
20 | Nc1nc(-c2ccco2)nc2cn(CCc3ccccc3)nc12 | 12
21 | Nc1nc(CCCc2ccccc2)nc2cn(-c3ccccc3F)nc12 | 25
22 | Cn1cc2nc(Cc3ccccc3)nc(N)c2n1 | 9
23 | Cc1ccc(-c2nc(N)c3nn(-c4ccccc4O)cc3n2)o1 | 1
24 | COc1ccccc1-n1cc2nc(-c3ccc(C)o3)nc(N)c2n1 | 1
25 | COc1ccccc1-n1cc2nc(-c3ccco3)nc(N)c2n1 | 31
26 | Cn1cc2nc(CCCc3ccccc3)nc(N)c2n1 | 36
27 | Cc1nc(N)c2nn(Cc3ccccc3)cc2n1 | 1
28 | Nc1nc(Cc2ccccc2)nc2cn(Cc3ccccc3)nc12 | 1
29 | Cc1nc(N)c2nn(CCc3ccccc3)cc2n1 | 10
30 | COc1ccccc1-n1cc2nc(-c3cccs3)nc(N)c2n1 | 24
31 | Nc1nc(-c2ccco2)nc2cn(Cc3ccccc3)nc12 | 32

molecular target: T2, Adenosine receptor A2a; experiment: Displacement of [3H]-ZM241385 from human adenosine A2A receptor expressed in CHO cell membranes at 1 uM after 60 mins by scintillation counting method relative to control

Row | Compound | inhibition [%]
32 | Nc1nc(-c2ccco2)nc2cn(CCc3ccccc3)nc12 | 33
33 | Nc1nc(CCCc2ccccc2)nc2cn(-c3ccccc3F)nc12 | 43
34 | Cn1cc2nc(Cc3ccccc3)nc(N)c2n1 | 1
35 | Cn1cc2nc(CCCc3ccccc3)nc(N)c2n1 | 1
36 | Cc1nc(N)c2nn(Cc3ccccc3)cc2n1 | 1
37 | Nc1nc(Cc2ccccc2)nc2cn(Cc3ccccc3)nc12 | 1
38 | Cc1nc(N)c2nn(CCc3ccccc3)cc2n1 | 12
39 | COc1ccccc1-n1cc2nc(-c3cccs3)nc(N)c2n1 | 27

molecular target: T5, Adenosine receptor A3 (Homo sapiens) (UniProt P0DMS8); experiment: Displacement of [125I]-AB-MECA from human adenosine A3 receptor expressed in CHO cell membranes at 1 uM after 60 mins by scintillation counting method relative to control
T5 sequence (whole entry): T3 sequence (P0DMS8 whole entry)

Row | Compound | inhibition [%]
40 | Nc1nc(-c2ccco2)nc2cn(CCc3ccccc3)nc12 | 4
41 | Cn1cc2nc(Cc3ccccc3)nc(N)c2n1 | 1
42 | COc1ccccc1-n1cc2nc(-c3ccco3)nc(N)c2n1 | 37
43 | Cn1cc2nc(CCCc3ccccc3)nc(N)c2n1 | 30
44 | Cc1nc(N)c2nn(Cc3ccccc3)cc2n1 | 1
45 | Nc1nc(Cc2ccccc2)nc2cn(Cc3ccccc3)nc12 | 15
46 | Cc1nc(N)c2nn(CCc3ccccc3)cc2n1 | 3
47 | Nc1nc(CCCc2ccccc2)nc2cn(-c3ccccc3O)nc12 | 5
48 | Nc1nc(-c2ccco2)nc2cn(Cc3ccccc3)nc12 | 2

molecular target: T6, Adenosine receptor A2b (Homo sapiens) (UniProt P29275); experiment: Antagonist activity at human adenosine A2B receptor expressed in CHO cell membranes assessed as inhibition of NECA-stimulated cAMP level at 1 uM preincubated for 10 mins followed by NECA stimulation by scintillation counting method in presence of [3H]-cyclic AMP; format: functional
T6 sequence (whole entry): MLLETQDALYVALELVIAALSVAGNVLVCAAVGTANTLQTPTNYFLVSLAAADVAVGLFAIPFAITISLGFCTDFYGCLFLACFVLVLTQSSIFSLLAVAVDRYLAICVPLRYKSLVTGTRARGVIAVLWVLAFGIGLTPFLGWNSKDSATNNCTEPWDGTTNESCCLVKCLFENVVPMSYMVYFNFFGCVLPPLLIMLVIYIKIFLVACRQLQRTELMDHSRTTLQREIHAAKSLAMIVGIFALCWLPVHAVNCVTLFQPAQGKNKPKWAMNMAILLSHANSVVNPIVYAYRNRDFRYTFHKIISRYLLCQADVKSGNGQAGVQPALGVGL

Row | Compound | inhibition [%]
49 | Nc1nc(-c2ccco2)nc2cn(CCc3ccccc3)nc12 | 3
50 | Nc1nc(CCCc2ccccc2)nc2cn(-c3ccccc3F)nc12 | 1
51 | Cn1cc2nc(Cc3ccccc3)nc(N)c2n1 | 20
52 | Cc1ccc(-c2nc(N)c3nn(-c4ccccc4O)cc3n2)o1 | 1
53 | COc1ccccc1-n1cc2nc(-c3ccc(C)o3)nc(N)c2n1 | 1
54 | COc1ccccc1-n1cc2nc(-c3ccco3)nc(N)c2n1 | 12
55 | Cn1cc2nc(CCCc3ccccc3)nc(N)c2n1 | 2
56 | Cc1nc(N)c2nn(Cc3ccccc3)cc2n1 | 1
57 | Nc1nc(Cc2ccccc2)nc2cn(Cc3ccccc3)nc12 | 1
58 | Cc1nc(N)c2nn(CCc3ccccc3)cc2n1 | 3
59 | COc1ccccc1-n1cc2nc(-c3cccs3)nc(N)c2n1 | 1
60 | Nc1nc(CCCc2ccccc2)nc2cn(-c3ccccc3O)nc12 | 5
61 | Nc1nc(-c2ccco2)nc2cn(Cc3ccccc3)nc12 | 37

molecular target: T7, Adenosine receptor A2b (Homo sapiens, UniProt P29275); experiment: Antagonist activity at human adenosine A2B receptor expressed in CHO cell membranes assessed as inhibition of NECA-stimulated cAMP level preincubated for 10 mins followed by NECA stimulation by scintillation counting method in presence of [3H]-cyclic AMP; format: functional
T7 sequence (P29275 whole entry): T6 sequence (whole entry)

Row | Compound | IC50 [nM]
62 | COc1ccccc1Cn1cc2nc(-c3ccco3)nc(N)c2n1 | 512
63 | Cc1ccc(-c2nc(N)c3nn(Cc4ccccc4F)cc3n2)o1 | 354
64 | Cc1ccc(-c2nc(N)c3nn(Cc4ccccc4Cl)cc3n2)o1 | 152

species on record: Homo sapiens; experiment: Selectivity ratio of Ki for human adenosine A1 receptor to Ki for human adenosine A2A receptor

Row | Compound | Ratio Ki
65 | COc1ccccc1Cn1cc2nc(-c3ccco3)nc(N)c2n1 | 3
66 | Cc1ccc(-c2nc(N)c3nn(Cc4ccccc4F)cc3n2)o1 | 3
67 | Cc1ccc(-c2nc(N)c3nn(Cc4ccccc4Cl)cc3n2)o1 | 3

molecular target: T1, Adenosine receptor A1; experiment: Antagonist activity at human adenosine A1 receptor expressed in CHO cell membranes assessed as suppression of CCPA-mediated inhibition of cAMP level by scintillation counting method in presence of [3H]-cyclic AMP; format: functional

Row | Compound | IC50 [nM]
68 | COc1ccccc1Cn1cc2nc(-c3ccco3)nc(N)c2n1 | 106

molecular target: T2, Adenosine receptor A2a; experiment: Antagonist activity at human adenosine A2A receptor expressed in CHO cell membranes assessed as inhibition of NECA-stimulated cAMP level preincubated for 10 mins followed by NECA stimulation by scintillation counting method in presence of [3H]-cyclic AMP; format: functional

Row | Compound | IC50 [nM]
69 | COc1ccccc1Cn1cc2nc(-c3ccco3)nc(N)c2n1 | 6.21
